# From US6855348B2, “Insecticidal composition derived from plants” (priority 2000, dated 2005)
# Values joined by “and” are separate entries in the source; they are usually repeats but may differ in a detail not shown here. Equal values may be shown once. Read-outs that look alike come from different tables or passages of the source.
# Experiments:
# [1] = test system: Dermatophagoides farinae
# Protocol: (§1) American house dust mite (Dermatophagoides farinae) and European house dust mite (Dermatophagoide pteronyssinus) were maintained at 75±5% RH (relative humidity) at 25±1° C., and were provided a feed mixture of fish meal and multi-vitamins in a ratio of 1 to 1 on a 12.5×10.5×5 cm container.
# (§2) The starting concentration is important for the primary screening of bioactive compounds from plant extracts and oils. […] 1 mg of the methanol extracts or oils were suspended with 40 μl of methanol and were transferred to a colorless microtube (2 ml). The microtube was vertically shaken several times to disperse the contents to the wall and cap of the microtube and it was placed in a freeze dryer for 1 hour in order to volatilize the solvent. Twenty-five mites were placed on the prepared microtube, and all treatment groups were transferred to an incubator kept at […]. Active mites only were selected with a fine brush under a microscope. Mortalities were determined with a microscope at 24 hours and 48 hours after treatment. […] All tests were replicated four or more times. The percentage mortality was determined and transformed to arcsine square-root values for analysis of variance (ANOVA). Treatment means were compared and separated by Scheffe's test at the P=0.05 (SAS Institute, 1996). Means (±standard error) of untransformed data are reported. Controls received 40 μl of methanol.
# [2] = test system: Dermatophagoides pteronyssinus
# Protocol: as §1, §2
# [3] = test system: stored-product pests; experiment: Insecticidal activity test, statements not resolved by pest species; format: in vivo; conditions: concentration of 1.25 mg
# Protocol: (§3) Stored-product pests used in the present invention were adult Lasioderma serricome Fab., adult Sitophilus oryzae L. and adult Callosobruchus chinensis L., and it was selected insects were not exposed to any insecticide. L. serricorne was bred in a beaker(10 cm diameter, 15 cm height) with wheat bran, S. oryzae was bred in a platic container(20×20×15 cm) with peanuts, and was bred in a plastic container(26×30×20 cm) with red beans. All insects were maintained at 28±1° C., 55±5% RH(relative humidity) and 16:8 hr(day:night) light condition.
# (§4) Right after treatment, paper was transferred to hood and put in hood for about 2 minutes to completely evaporate solvent, and then, the above paper was put on paper treated with 20 adult pests in petri dish and this dish was covered with a lid. 24 hours after insecticide activity was investigated. To faacilitate handling of adult pests by their reducing activity, L. sericorne was put at −4° C. for 2 minutes, S. oryzae was used without this treatment, and C. chinensis was selected by using sucking tube. Healthy pests used in test were selected right before 6 hours of test. They were maintained at 28±1° C., 50-60% RH and 16:8 hr(day:night) light condition.
# [4] = test system: Lasioderma serricorne; experiment: Insecticidal activity test, treated filter paper in petri dish; format: in vivo; conditions: adults, 24 hours
# Protocol: as §3, §4
# (§5) Insecticidal activity of salicylaldehyde against stored-product pests was investigated by the insecticidal test of Test 6. Test was repeated 25 times for adult S. oryzae, and 10 times for adult L. serricorne and adult C. chinensis. 10 adult pests were used for each test.
# [5] = test system: Sitophilus oryzae; experiment: as above; format: in vivo, Sitophilus oryzae L.; conditions: adults, 24 hours
# Protocol: as §3, §4, §5
# [6] = test system: Callosobruchus chinensis; experiment: as above; format: in vivo, Callosobruchus chinensis L.; conditions: adults, 24 hours
# Protocol: as §3, §4, §5
compound,measurement,setting,value
O=Cc1ccccc1O [salicylaldehyde],"Mortality (Means ± standard error, %)","[1]; 0.125 mg/tube, 24 hr",20.0 ± 1.6c %
same,"Mortality (Means ± standard error, %)","[1]; 0.125 mg/tube, 48 hr",27.0 ± 3.8c %
same,"Mortality (Means ± standard error, %)","[1]; 0.2 mg/tube, 24 hr",22.0 ± 1.2c %
same,"Mortality (Means ± standard error, %)","[1]; 0.2 mg/tube, 48 hr",28.0 ± 1.6c %
same,"Mortality (Means ± standard error, %)","[1]; 0.25 mg/tube, 24 hr",26.0 ± 2.0c %
same,"Mortality (Means ± standard error, %)","[1]; 0.25 mg/tube, 48 hr",34.02.6bc %
same,"Mortality (Means ± standard error, %)","[1]; 0.3 mg/tube, 24 hr",27.0 ± 1.9c %
same,"Mortality (Means ± standard error, %)","[1]; 0.3 mg/tube, 48 hr",37.0 ± 1.9bc %
same,"Mortality (Means ± standard error, %)","[1]; 0.4 mg/tube, 24 hr",44.0 ± 2.8b %
same,"Mortality (Means ± standard error, %)","[1]; 0.4 mg/tube, 48 hr",48.0 ± 2.8b %
same,"Mortality (Means ± standard error, %)","[1]; 0.5 mg/tube, 24 hr",99.0%
same,"Mortality (Means ± standard error, %)","[1]; 0.5 mg/tube, 48 hr",100a %
same,"Mortality (Means ± standard error, %)","[1]; 1 mg/tube, 24 hr",100a %
same,"Mortality (Means ± standard error, %)","[1]; 1 mg/tube, 48 hr",100a %
same,"Mortality (Means ± standard error, %)","[2]; 0.125 mg/tube, 24 hr",0e %
same,"Mortality (Means ± standard error, %)","[2]; 0.125 mg/tube, 48 hr",0e %
same,"Mortality (Means ± standard error, %)","[2]; 0.2 mg/tube, 24 hr",6.0 ± 1.1d %
same,"Mortality (Means ± standard error, %)","[2]; 0.2 mg/tube, 48 hr",9.0 ± 1.0d %
same,"Mortality (Means ± standard error, %)","[2]; 0.25 mg/tube, 24 hr",7.0 ± 3.0d %
same,"Mortality (Means ± standard error, %)","[2]; 0.25 mg/tube, 48 hr",8.0 ± 2.8d %
same,"Mortality (Means ± standard error, %)","[2]; 0.3 mg/tube, 24 hr",22.0 ± 2.6c %
same,"Mortality (Means ± standard error, %)","[2]; 0.3 mg/tube, 48 hr",27.0 ± 2.5c %
same,"Mortality (Means ± standard error, %)","[2]; 0.4 mg/tube, 24 hr",44.0 ± 2.8b %
same,"Mortality (Means ± standard error, %)","[2]; 0.4 mg/tube, 48 hr",46.0 ± 2.6b %
same,"Mortality (Means ± standard error, %)","[2]; 0.5 mg/tube, 24 hr",89.0%
same,"Mortality (Means ± standard error, %)","[2]; 0.5 mg/tube, 48 hr",92.0 ± 1.6a %
same,"Mortality (Means ± standard error, %)","[2]; 1 mg/tube, 24 hr",100a %
same,"Mortality (Means ± standard error, %)","[2]; 1 mg/tube, 48 hr",100a %
same,insecticidal activity against three species,[3],100%
same,"Mortality (Means ± standard error, %)",[4]; 0.3125 mg/paper,87% and 86.7 ± 3.3 b %
same,"Mortality (Means ± standard error, %)",[4]; 0.625 mg/paper,100%
same,"Mortality (Means ± standard error, %)",[4]; 1.25 mg/paper,100 a %
same,"Mortality (Means ± standard error, %)",[4]; 2.5 mg/paper,100 a %
same,"Mortality (Means ± standard error, %)",[4]; 5 mg/paper,100 a %
same,"Mortality (Means ± standard error, %)",[5]; 0.3125 mg/paper,7.0 ± 2.1 b %
same,"Mortality (Means ± standard error, %)",[5]; 0.625 mg/paper,97%
same,"Mortality (Means ± standard error, %)",[5]; 1.25 mg/paper,100 a %
same,"Mortality (Means ± standard error, %)",[5]; 2.5 mg/paper,100 a %
same,"Mortality (Means ± standard error, %)",[5]; 5 mg/paper,100 a %
same,"Mortality (Means ± standard error, %)",[6]; 0.15625 mg/paper,68.0 ± 3.9 b %
same,"Mortality (Means ± standard error, %)",[6]; 0.3125 mg/paper,97%
same,"Mortality (Means ± standard error, %)",[6]; 0.625 mg/paper,100%
same,"Mortality (Means ± standard error, %)",[6]; 1.25 mg/paper,100 a %
same,"Mortality (Means ± standard error, %)",[6]; 2.5 mg/paper,100 a %
same,"Mortality (Means ± standard error, %)",[6]; 5 mg/paper,100 a %
